In patent publication US10975068B2, “6-aminopyridin-3-yl thiazoles as modulators of RORγT” (Janssen Pharmaceutica NV, priority 2016, dated 2021):

Legend:
[1] = target: human RORγt ligand binding domain (RORγt LBD) (Homo sapiens (Human), UniProt P51449); assay: RORγt ThermoFluor® assay (thermal shift binding); settings: for Kd: read-out: ThermoFluor® Assay, Kd
Procedure, shortened: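 Binding was inferred from thermal stabilisation (ΔTm) of the E. coli-expressed RORγt LBD (0.065 mg/mL), monitored by 1,8-ANS (60 μM) emission at 500 nm during a 1 °C/min ramp. Buffer was Hepes 100 mM pH 7.0 with NaCl, GSH and Tween-20.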

[2] = target: T1, full-length human RORγt (Homo sapiens (Human), UniProt P51449); assay: RORγt (full-length human) reporter assay, Conditions A; format: cell-based; settings: for IC50: read-out: RORγt (FL) Reporter Assay A, IC50; for inhibition at 6 µM: read-out: RORγt (FL) Reporter Assay A, % inhibition @ 6 μM
T1 sequence (P51449 other isoform, or with tags, fused parts or gaps): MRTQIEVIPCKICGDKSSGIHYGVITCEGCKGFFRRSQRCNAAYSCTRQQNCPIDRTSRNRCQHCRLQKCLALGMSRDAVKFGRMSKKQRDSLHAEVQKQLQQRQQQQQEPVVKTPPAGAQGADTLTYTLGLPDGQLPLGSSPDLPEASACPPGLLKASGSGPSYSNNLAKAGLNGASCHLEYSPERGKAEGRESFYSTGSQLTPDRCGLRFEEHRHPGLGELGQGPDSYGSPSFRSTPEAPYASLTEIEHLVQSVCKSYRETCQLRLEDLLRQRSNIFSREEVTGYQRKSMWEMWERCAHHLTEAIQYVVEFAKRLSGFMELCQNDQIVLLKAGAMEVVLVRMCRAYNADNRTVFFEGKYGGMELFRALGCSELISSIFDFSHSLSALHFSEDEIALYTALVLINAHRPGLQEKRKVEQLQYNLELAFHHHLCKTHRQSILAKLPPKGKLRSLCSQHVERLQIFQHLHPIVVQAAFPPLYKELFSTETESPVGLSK
Source text: RORγt (Full-Length Human) Reporter Assay:
Cells used in this assay were transiently co-transfected with three different plasmids, one expressing the GAL4-DNA binding domain (DBD)-RORγt fusion protein under control of a CMV promoter (NH2-Gal4-DBD:RORC-COOH in pCMV-BD, Stratagene #211342), and two reporter plasmids—the firefly luciferase reporter under control of a GAL4 promoter (pFR-Luc 2×GAL4) and Renilla luciferase reporter under control of CMV promoter (pRL-CMV, Promega # E2261). The full-length coding sequence was used for human RORγt, i.e., nucleotides 142-1635 of human RORγt, transcript variant 2, NCBI Accession: NM_001001523.1 (SEQ ID NO:1). HEK293T cells were plated at 35000 per well in 96-well plate in medium of MEM with 8.6% FBS. After 18-22 hours incubation, the transfection was carried out by using a PEI solution with 170.5 ng total DNA/well (50 ng pCMV-BD-ROR plus 20 ng of pFR-Luc reporter and 0.5 ng of pRL-CMV reporter plus 100 ng Carrier DNA (Clontech #630440) for each well). 4-6 hours after transfection, cells were treated with compounds for overnight in the medium with final concentration of FBS 1.1% and DMSO 0.1%. After overnight (16 to 20 hours) incubation, media were removed and cells were lysed with 20 μL 1× Passive Lysis Buffer (Promega) for 10-15 minutes. Luminescence was measured using a BMG LUMIstar OPTIMA plate reader, after addition of 75 μL/well firefly luciferase buffer, followed by 75 μL/well Renilla luciferase buffer. To calculate the effect of compounds on RORγt activity, firefly values were normalized against values of DMSO only and values of reference compound at saturating concentration, then further normalized against Renilla signals. IC50s were generated by plotting final Renilla normalized data against compound concentration and percent inhibition was calculated against DMSO control.

[3] = tested on: IL-17 production by CD4 T cells; assay: Human Th17 assay; format: cell-based; settings: read-out: Human Th17 Assay, IC50
Source text: The human Th17 assay tests the effect of RORγt modulatory compounds on IL-17 production by CD4 T cells under conditions which favor Th17 differentiation. Total CD4^+ T cells were isolated from the peripheral blood mononuclear cells (PBMC) of healthy donors using a CD4^+ T cell isolation kit II, following the manufacturer's instructions (Miltenyi Biotec). Cells were resuspended in a medium of RPMI-1640 supplemented with 10% fetal bovine serum, penicillin, streptomycin, glutamate, and β-mercaptoethanol and were added to 96-well plates at 1.5×10^5 per 100 μL per well. 50 μL of compound at titrated concentrations in DMSO were added into each well at final DMSO concentration at 0.2%. Cells were incubated for 1 hour, then 50 μL of Th17 cell differentiation medium was added to each well. The final concentrations of antibodies and cytokines (R&D Systems) in differentiation medium were: 3×10^6/mL anti-CD3/CD28 beads (prepared using human T cell activation/expansion kit, Miltenyi Biotec), 10 μg/mL anti-IL4, 10 μg/mL anti-IFNγ, 10 ng/mL IL1β, 10 ng/mL IL23, 50 ng/mL IL6, 3 ng/mL TGFβ and 20 U/mL IL2. Cells were cultured at 37° C. and 5% CO2 for 3 days. Supernatants were collected and the accumulated IL-17 in culture was measured by using MULTI-SPOT® Cytokine Plate following manufacture's instruction (Meso Scale Discovery). The plate was read using Sector Imager 6000, and IL-17 concentration was extrapolated from the standard curve. The IC50s were determined by GraphPad.

[4] = target: T1, full-length human RORγt; assay: RORγt (full-length human) reporter assay, Conditions B or C; format: cell-based; settings: for IC50: read-out: RORγt (FL) Reporter Assay B or C, IC50
Procedure, shortened: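 Readout is dual luciferase: firefly (GAL4-driven) normalized to DMSO-only and saturating-reference controls, then to CMV-Renilla. Full-length human RORγt fused to GAL4-DBD was transiently expressed in HEK293T; compound exposure ran overnight (16-20 h) starting 4-6 h after transfection, final FBS 1.3%, DMSO 0.1%.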

[5] = tested on: mice; settings: cited from earlier work
[6] = tested on: obese diabetic mice; settings: cited from earlier work

Sequence of human RORγt ligand binding domain (RORγt LBD) (P51449 other isoform, or with tags, fused parts or gaps): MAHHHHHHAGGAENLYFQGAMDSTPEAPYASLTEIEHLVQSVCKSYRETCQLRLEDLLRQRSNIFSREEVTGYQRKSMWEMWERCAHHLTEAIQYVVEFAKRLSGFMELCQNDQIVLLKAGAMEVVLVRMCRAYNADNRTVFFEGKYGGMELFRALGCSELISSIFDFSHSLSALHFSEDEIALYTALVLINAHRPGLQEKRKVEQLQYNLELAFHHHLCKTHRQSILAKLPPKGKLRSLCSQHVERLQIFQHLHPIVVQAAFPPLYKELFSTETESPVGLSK

Row | SMILES | Kd [1] [nM] | IC50 ([2]; Conditions A) [nM] | IC50 [3] [nM] | inhibition at 6 µM ([2]; Conditions A) [%] | also measured
1 | CC(C)Nc1cc(C(F)(F)F)c(-c2sc(C(=O)NCC(C)(C)O)nc2C(=O)N2CCC(F)CC2)cn1 [Example 12, 4-(4-Fluoropiperidine-1-carbonyl)-N-(2-hydroxy-2-methylpropyl)-5-(6-(isopropylamino)-4-(trifluoromethyl)pyridin-3-yl)thiazole-2-carboxamide] | 63 |  | 190 | 92 | fold improvement in RORγt Thermofluor® binding assay activity ([1]; compared to Comparator Example 3): over 800 fold; IC50 ([2]; HEK293T cells): 850 nM
2 | C[C@H]1CCCN1C(=O)c1nc(C(=O)NCC(C)(C)O)sc1-c1cnc(NC2CCCCC2)cc1C(F)(F)F [Example 19, (S)-5-(6-(Cyclohexylamino)-4-(trifluoromethyl)pyridin-3-yl)-N-(2-hydroxy-2-methylpropyl)-4-(2-methylpyrrolidine-1-carbonyl)thiazole-2-carboxamide] | 4.4 | 32 | 40 | 99 | 
3 | C[C@H]1CCCCN1C(=O)c1nc(C(=O)NCC(C)(C)O)sc1-c1cnc(NC2CCCCC2)cc1C1CC1 [Example 76, (S)-5-(6-(Cyclohexylamino)-4-cyclopropylpyridin-3-yl)-N-(2-hydroxy-2-methylpropyl)-4-(2-methylpiperidine-1-carbonyl)thiazole-2-carboxamide] |  |  | 20 |  | IC50 ([4]; Conditions B or C): 3.8 nM; inhibition at 6 µM ([4]; read-out: RORγt (FL) Reporter Assay B or C, % inhibition @ 6 μM, Conditions B or C, @ 6 μM): 108%
4 | CC(=O)Nc1nc(C)c(S(=O)(=O)Nc2ccc(C(O)(C(F)(F)F)C(F)(F)F)cc2)s1 [SR1001] |  |  |  |  | Th17-dependent learned helplessness [5]: reduced Th17-dependent learned helplessness
5 | CC(=O)N1CCN(Cc2ccc(-c3ccc(C(O)(C(F)(F)F)C(F)(F)F)cc3)cc2)CC1 [SR1555] |  |  |  |  | body weight [6]: reduced; fat mass [6]: significant reduction; food intake [6]: modest reduction; insulin sensitivity [6]: improved

The remaining compounds from weak to strong by IC50 [3], led by results:

Row | Kd [1] [nM] | IC50 ([2]; Conditions A) [nM] | IC50 [3] [nM] | inhibition at 6 µM ([2]; Conditions A) [%] | SMILES | also measured
6 | 17 | 63 | 220 | 96 | CC(C)(O)CNC(=O)c1nc(C(=O)N2CCC(F)CC2)c(-c2cnc(NC3CCCCC3)cc2C2CC2)s1 [Example 64, 5-(6-(Cyclohexylamino)-4-cyclopropylpyridin-3-yl)-4-(4-fluoropiperidine-1-carbonyl)-N-(2-hydroxy-2-methylpropyl)thiazole-2-carboxamide] | 
7 | 9.6 | 35 | 40 |  | CC(C)(O)CNC(=O)c1nc(C(=O)N2CCC(F)CC2)c(-c2cnc(NC3CCCCC3)cc2C(F)(F)F)s1 [Example 3, 5-(6-(Cyclohexylamino)-4-(trifluoromethyl)pyridin-3-yl)-4-(4-fluoropiperidine-1-carbonyl)-N-(2-hydroxy-2-methylpropyl)thiazole-2-carboxamide] | RORγt (FL) Reporter Assay A, % inhibition (value marked **) ([2]; Conditions A, marked **: footnote not shown): 106** %
8 |  |  | 19 |  | CC[C@H](Nc1cc(C(F)F)c(-c2sc(C(=O)NCC(C)(C)O)nc2C(=O)N2CCCC[C@@H]2C)cn1)C(F)(F)F [Example 91, 5-(4-(Difluoromethyl)-6-(((S)-1,1,1-trifluorobutan-2-yl)amino)pyridin-3-yl)-N-(2-hydroxy-2-methylpropyl)-4-((S)-2-methylpiperidine-1-carbonyl)thiazole-2-carboxamide] | RORγt (FL) Reporter Assay B or C, % inhibition (value marked *) ([4]; Conditions B or C, marked *: footnote not given): 96* %
9 |  |  | 14 |  | C[C@H]1CCCCN1C(=O)c1nc(C(=O)NC2CCS(=O)(=O)CC2)sc1-c1cnc(NC2CCCCC2)cc1C1CC1 [Example 75, (S)-5-(6-(Cyclohexylamino)-4-cyclopropylpyridin-3-yl)-N-(1,1-dioxidotetrahydro-2H-thiopyran-4-yl)-4-(2-methylpiperidine-1-carbonyl)thiazole-2-carboxamide] | RORγt (FL) Reporter Assay B or C, % inhibition (value marked **) ([4]; Conditions B or C, marked **: footnote not shown): 108** %; IC50 ([4]; Conditions B or C): 7 nM
